{"source": "paper PMC9369154", "about": "“Molecular Basis for Luteolin as a Natural TatD DNase Inhibitor in Trueperella pyogenes” (International Journal of Molecular Sciences, 2022)", "key": {"[1]": {"molecular_target": "T1, TatD825 (Trueperella pyogenes, UniProt A0ABV3NC31)", "T1 construct": "gene V3M73_06995; His-TatD 825 recombinant protein expressed in E. coli BL21 (DE3)", "test": "SPR (Biacore T200, NTA chip, […] binding model); DNase gel assay with Mg2+ also shows inhibition"}, "[2]": {"molecular_target": "T2, TatD960 (Trueperella pyogenes, UniProt A0ABV3N8R6)", "T2 construct": "gene V3M73_00540; His-TatD 960 recombinant protein expressed in E. coli BL21 (DE3)", "test": "SPR (Biacore T200, NTA chip, […] binding model); DNase gel assay with Mg2+ also shows inhibition"}}}
{"smiles": "O=c1cc(-c2ccc(O)c(O)c2)oc2cc(O)cc(O)c12", "note": "[luteolin, 3′,4′,5,7-tetrahydroxyflavone]", "values": [{"measurement": "Kd", "setting": "[1]", "result": 5.65, "unit": "µM"}, {"measurement": "Kd", "setting": "[2]", "result": 6.27, "unit": "µM"}]}
